≈ marks a conversion by molar mass, not a printed value.
What was measured:
[1] = DPPH radical scavenging assay; settings: for DPPH radical scavenging activity (IC50): positive control ascorbic acid
[2] = system: brine shrimp (Artemia salina); format: in vivo; settings: for brine shrimp lethality (LD50): Artemia salina, n.a. = no activity; for lethal activity against brine shrimp: result in words
Panagrellus redivivus = test: Nematicidal assay; format: in vivo; settings: for nematicidal activity (LD50): Panagrellus redivivus, n.a. = no activity; for nematicidal activity against Panagrellus redivivus: result in words
Magnaporthe grisea = test: microbe, parasite or virus in culture; format: cell-based; settings: Pyricularia oryzae, read-out: MIC against Magnaporthe grisea
S. aureus = test: Antimicrobial broth microdilution assay; format: cell-based, Staphyloccocus aureus; settings: Staphylococcus aureus, read-out: MIC against S. aureus

Row | SMILES | DPPH radical scavenging activity (IC50) [1] | brine shrimp lethality (LD50) [2] | lethal activity against brine shrimp [2] | nematicidal activity (LD50) (Panagrellus redivivus) | nematicidal activity against Panagrellus redivivus (Panagrellus redivivus) | MIC (Magnaporthe grisea) | MIC (S. aureus) | radical scavenging activity against DPPH radicals ([1]; result in words)
1 | O=C1O[C@H]([C@@H](O)CO)C(O)=C1O [Ascorbic Acid, ascorbic acid, reference compound] | 2.0 µg/mL | – | – | – | – | – | – | –
2 | C=CC(C)(C)c1[nH]c2cc(CC=C(C)C)ccc2c1/C=C1\NC(=O)C(C)(OC)NC1=O (centres unmarked) [Compound 2, isovariecolorin I] | 20.6 µg/mL | 19.4 µg/mL | potent lethal activity | 110.3 µg/mL | weak nematicidal effect | – | – | –
3 | C=CC(C)(C)c1[nH]c2c(CC=C(C)CO)cc(CC=C(C)C)cc2c1CC1NC(=O)C(C)NC1=O (centres unmarked) [Compound 3, 30-Hydroxyechinulin] | – | 138.1 µg/mL | weaklethal activities | – | – | – | – | –
4 | C=CC(C)(C)c1[nH]c2c(CC=C(C)CO)cc(CC=C(C)C)cc2c1CC1NC(=O)C(C)NC1=O (centres unmarked) [Compound 4, 29-hydroxyechinulin] | – | 140.6 µg/mL | weaklethal activities | – | – | – | – | –
5 | C=CC(C)(C)c1[nH]c2c(C[C@H](O)C(C)(C)O)cccc2c1/C=C1\NC(=O)[C@H](C)NC1=O [Compound 6, rubrumazine B] | 28.5 µg/mL | – | – | – | – | 64 µg/mL (≈ 150 µM) | – | –
6 | C=CC(C)(C)c1[nH]c2ccccc2c1/C=c1\[nH]c(=O)c(=C)[nH]c1=O [Compound 7, neoechinulin B] | 10.9 µg/mL | 105.2 µg/mL | weaklethal activities | >200 µg/mL | – | – | – | –
7 | C=CC(C)(C)c1[nH]c2cc(CC=C(C)C)ccc2c1C=c1[nH]c(=O)c(=C)[nH]c1=O [Compound 8, neoechinulin C] | 12.1 µg/mL | 70.1 µg/mL | – | >200 µg/mL | – | – | – | –
8 | C=CC(C)(C)c1[nH]c2c(CC=C(C)C)cc(CC=C(C)C)cc2c1C[C@@H]1NC(=O)C(=C)NC1=O [Compound 10, didehydroechinulin] | 13.3 µg/mL | 27.1 µg/mL | potent lethal activity | 126.4 µg/mL | weak nematicidal effect | – | – | –
9 | C=CC(C)(C)c1[nH]c2c(CC=C(C)C)cc(CC=C(C)C)cc2c1C[C@@H]1NC(=O)[C@H](C)NC1=O [Compound 11, echinulin] | 13.8 µg/mL | – | did not show any activity | – | did not show any activity | – | 256 µg/mL (≈ 555 µM) | –
10 | C=CC(C)(C)c1[nH]c2c(CC=C(C)C)cc(CC=C(C)C)cc2c1C=C1NC(=O)C(C)NC1=O (centres unmarked) [Compound 12, dehydroechinulin] | 6.4 µg/mL | – | did not show any activity | – | did not show any activity | – | 256 µg/mL (≈ 557 µM) | potent radical scavenging activity
11 | C=CC(C)(C)c1[nH]c2ccccc2c1/C=C1\NC(=O)C(C)(OC)NC1=O (centres unmarked) [Compound 13, variecolorin H] | 18.7 µg/mL | – | – | – | – | – | 256 µg/mL (≈ 724 µM) | –

— PMC5334605, “Indolediketopiperazine Alkaloids from Eurotium cristatum EN-220, an Endophytic Fungus Isolated from the Marine Alga Sargassum thunbergii” (Marine Drugs, 2017)
